Measured values reported in patent US6114334A, “Piperazine derivatives as therapeutic agents” (Knoll Aktiengesellschaft, priority 1995, dated 2000).
Structures can show the parent of a compound that is named as a salt. Where two headings read alike, the source gives them in different places.

Assays:
5-HT1A receptors = biological target: T1, 5-HT1A receptors (Rattus norvegicus, UniProt P19327); assay: inhibition of [3H]8-OH-DPAT binding to 5-HT1A receptors in vitro; set-up: species or system rat (male Sprague-Dawley, hippocampal tissue); details: for inhibition at 1 µM: read-out: % displacement at 10^-6 M, 5-HT1A; for Ki: [3H]8-OH-DPAT 2 nM, 25° C., 30 min
T1 sequence (P19327 1-422): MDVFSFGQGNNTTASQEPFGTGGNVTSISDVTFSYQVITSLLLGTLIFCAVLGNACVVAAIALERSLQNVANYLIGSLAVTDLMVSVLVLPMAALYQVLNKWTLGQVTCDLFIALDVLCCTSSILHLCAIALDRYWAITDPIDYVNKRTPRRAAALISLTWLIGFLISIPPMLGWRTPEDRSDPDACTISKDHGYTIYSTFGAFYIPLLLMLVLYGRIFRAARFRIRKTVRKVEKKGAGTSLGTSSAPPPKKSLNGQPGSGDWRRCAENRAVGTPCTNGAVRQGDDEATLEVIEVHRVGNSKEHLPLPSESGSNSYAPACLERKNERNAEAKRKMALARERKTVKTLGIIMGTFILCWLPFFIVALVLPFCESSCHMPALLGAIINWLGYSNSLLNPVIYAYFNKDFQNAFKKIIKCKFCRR
Experimental: Hippocampal tissue from the brains of male Sprague-Dawley rats (Charles River; weight range 150-250 g) was homogenised in ice-cold 50 mM Tris-HCl buffer (pH 7.7 when measured at 25° C., 1:40 w/v) and centrifuged at 30,000 g at 4° C. for 10 minutes. The pellet was rehomogenised in the same buffer, incubated at 37° C. for 10 minutes and centrifuged at 30,000 g at 4° C. for 10 minutes. The final pellet was resuspended in 50 mM Tris-HCl buffer (pH 7.7) containing 4 mM CaCl2. 0.1% L-ascorbic acid and 10 μM pargyline hydrochloride (equivalent to 6.25 mg wet weight of tissue/ml) and used immediately in the binding assay. Aliquots (400 μl; equivalent to 2.5 mg wet weight of tissue/tube) of this suspension were added to tubes containing the ligand (50 μl; 2 nM) and distilled water (50 μl; total binding) or 5-HT (50 μl; 10 μM; non-specific binding) or test compound (50 μl; at a single concentration of 10^-6 M or at 10 concentrations ranging from 10^-11 -10^-3 M). The ligand was [^3 H]8-hydroxy-2-(dipropylamino)tetralin ([^3 H]8-OH-DPAT) and the mixture was incubated at 25° C. for 30 minutes before the incubation was terminated by rapid filtration.
The filters were washed with ice-cold Tris-HCl buffer and dried. The filters were punched out into vials, scintillation fluid added and radioactivity determined by liquid scintillation counting. The percentage displacement of specific binding of the tritiated ligand was calculated for the single concentration (10^-6 M) of test compound. Displacement curves were then produced for those compounds which displaced ≥50% of specific binding of the tritiated ligand at 10^-6 M using a range of concentrations of the compound. The concentration which gave 50% inhibition of specific binding (IC50) was obtained from the curve. The inhibition coefficient Ki was then calculated using the formula [formula] in which [ligand] is the concentration of the tritiated ligand used and KD is the equilibrium dissociation constant for the ligand.

α2D-adrenoceptors = biological target: T2, α2D-adrenoceptors (Rattus norvegicus, UniProt P22909); assay: inhibition of tritiated idazoxan binding to α2D-adrenoceptors in vitro; set-up: species or system rat (male Charles River CD, frontal cortical tissue); details: rat frontal cortex; for inhibition at 1 µM: 10^-6 M, [3H]idazoxan, read-out: % displacement at 10^-6 M, α2D; for Ki: [3H]idazoxan 1 nM, 0° C., 75 min
T2 sequence (P22909 1-465): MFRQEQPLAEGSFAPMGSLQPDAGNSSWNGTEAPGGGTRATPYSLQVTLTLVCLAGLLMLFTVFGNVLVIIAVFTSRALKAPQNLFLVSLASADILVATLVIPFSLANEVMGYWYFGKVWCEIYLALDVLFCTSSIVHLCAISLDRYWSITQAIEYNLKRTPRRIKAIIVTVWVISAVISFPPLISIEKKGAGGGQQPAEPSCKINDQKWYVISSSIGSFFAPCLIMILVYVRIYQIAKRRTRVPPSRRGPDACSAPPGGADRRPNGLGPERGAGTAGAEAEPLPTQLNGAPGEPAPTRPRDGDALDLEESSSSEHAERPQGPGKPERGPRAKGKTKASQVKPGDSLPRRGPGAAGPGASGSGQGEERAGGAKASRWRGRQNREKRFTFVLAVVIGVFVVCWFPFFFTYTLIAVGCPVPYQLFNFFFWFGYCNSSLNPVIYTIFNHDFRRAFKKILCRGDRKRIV

α1-adrenoceptors = assay: inhibition of 7-methoxy-[3H]prazosin binding to α1-adrenoceptors in vitro; set-up: species or system rat (male Charles River CD, whole cortical tissue); details: rat whole cortex, 30 min; for % displacement at 10^-6 M, α1: 7-methoxy-[3H]prazosin, 1 µM; for Ki: 7-methoxy-[3H]prazosin 0.1 nM, 30° C.
Experimental: Whole cortical tissue from the brains of male Charles River CD rats weighing between 150-250 g were homogenised in ice-cold 50 mM Tris-HCl, pH 7.6 (at 25° C.; 1:40 w/v) and centrifuged at 1000 g at 4° C. for 10 minutes. The supernatant was centrifuged at 30,000 g at 4° C. for 10 minutes. The pellet was rehomogenised in 50 mM Tris-HCl, pH 7.6 (1:40 w/v) and centrifuged at 30,000 g at 4° C. for 10 minutes. The final pellet was resuspended in 50 mM Tris-HCl, pH 7.6 (equivalent to 12.5 mg wet weight of tissue/ml) and used immediately in the binding assay. Aliquots (400 μl; equivalent to 5 mg wet weight of tissue/tube) of this suspension were added to tubes containing the ligand (50 μl; 0.1 nM) and distilled water (50 μl; total binding) or phentolamine (50 μl; 5 μM; non-specific binding) or test compound (50 μl; at a single concentration of 10^-6 M or at 10 concentrations ranging from 10^-11 -10^-3 M). The ligand was 7-methoxy-[^3 H]prazosin and the mixture was incubated at 30° C. for 30 minutes before the incubation was terminated by rapid filtration. The filters were washed with ice-cold Tris-HCl buffer and dried. The filters were punched out into vials, scintillation fluid added and radioactivity determined by liquid scintillation counting. The percentage displacement of specific binding of the tritiated ligand was calculated for the single concentration (10^-6 M) of test compound. […] The concentration which gave 50% inhibition of specific binding (IC50) was obtained from the curve. The inhibition coefficient Ki was then calculated using the formula [formula] in which [ligand] is the concentration of the tritiated ligand used and KD is the equilibrium dissociation constant for the ligand.

D2 dopamine receptors = D2 dopamine receptors (Rattus norvegicus, UniProt P61169); assay: inhibition of tritiated (S)-sulpiride binding to D2 dopamine receptors in vitro; set-up: species or system rat (male Charles River CD, striatal tissue); details: rat striatum; for Ki: tritiated (S)-sulpiride 1 nM, 4° C., 40 min
D2 dopamine receptors, sequence (P61169 whole entry): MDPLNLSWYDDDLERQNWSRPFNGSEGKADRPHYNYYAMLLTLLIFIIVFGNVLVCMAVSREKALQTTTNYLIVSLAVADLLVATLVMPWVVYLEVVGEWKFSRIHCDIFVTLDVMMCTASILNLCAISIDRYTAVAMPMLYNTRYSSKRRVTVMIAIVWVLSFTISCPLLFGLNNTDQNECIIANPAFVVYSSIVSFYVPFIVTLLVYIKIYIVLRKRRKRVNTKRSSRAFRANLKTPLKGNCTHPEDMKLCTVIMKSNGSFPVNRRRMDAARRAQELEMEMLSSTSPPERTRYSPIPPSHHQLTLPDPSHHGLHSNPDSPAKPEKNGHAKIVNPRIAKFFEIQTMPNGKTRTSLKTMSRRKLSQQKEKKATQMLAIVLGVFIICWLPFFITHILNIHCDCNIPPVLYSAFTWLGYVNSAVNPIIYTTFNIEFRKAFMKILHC

[1] = 10^-6 M, rat hippocampus, [3H]8-OH-DPAT

| inhibition at 1 µM (5-HT1A receptors; [1]) [%] | inhibition at 1 µM (α2D-adrenoceptors) [%] | % displacement at 10^-6 M, α1 (α1-adrenoceptors) [%] | Ki (D2 dopamine receptors) [nM] | Ki (5-HT1A receptors; rat hippocampus) [nM] | Ki (α2D-adrenoceptors) [nM] | Ki (α1-adrenoceptors) [nM] | inhibition at 1 µM (D2 dopamine receptors; 10^-6 M, tritiated (S)-sulpiride, read-out: % displacement at 10^-6 M, D2) [%] | SMILES | inhibition at 1 µM (5-HT1A receptors) [%] |
| --- | --- | --- | --- | --- | --- | --- | --- | --- | --- |
| 90 | 84 | 98 | 93 | – | – | – | – | C=CCn1c(-c2cccnc2)nn(CCCCN2CCN(c3cccc(C)c3C)CC2)c1=O [Example 64, 4-Allyl-2-{4-[4-(2,3-dimethylphenyl)piperazin-1-yl]butyl}-5-(3-pyridyl)-1,2,4-triazol-3(2H,4H)-one 1.5 maleate] | – |
| – | – | – | 73 | 108 | 194 | 358 | – | COc1ccccc1N1CCN(Cn2ncn(C)c2=S)CC1 [Example 55, 2-[4-(2-Methoxyphenyl)piperazin-1-ylmethyl]-4-methyl-1,2,4-triazole-3(2H,4H)-thione] | – |
| 52 | 52 | – | > 500 | – | – | > 500 | – | C=CCn1c(-c2cccnc2)nn(CN2CCN(c3cccc(C)c3C)CC2)c1=S [Example 61, 4-Allyl-2-[4-(2,3-dimethylphenyl)piperazin-1-ylmethyl]-5-(3-pyridyl)-1,2,4-triazole-3(2H,4H)-thione] | – |
| – | – | – | 158 | 105 | 197 | 401 | – | C=CCn1c(-c2ccco2)nn(CN2CCN(c3ccccc3OC)CC2)c1=S [Example 56, 4-Allyl-5-(2-furyl)-2-[4-(2-methoxyphenyl)piperazin-1-ylmethyl]-1,2,4-triazole-3(2H,4H)-thione] | – |
| – | – | – | 274 | 117 | 150 | > 500 | – | CCCn1c(-c2ccncc2)nn(CN2CCN(c3ccccc3OC)CC2)c1=S [Example 53, 2-[4-(2-Methoxyphenyl)piperazin-1-ylmethyl]-4-propyl-5-(4-pyridyl)-1,2,4-triazole-3(2H,4H)-thione] | – |
| – | – | – | 243 | 135 | 218 | 477 | – | COc1ccccc1N1CCN(Cn2nc(C(F)(F)F)n(C)c2=S)CC1 [Example 54, 2-[4-(2-Methoxyphenyl)piperazin-1-ylmethyl]-4-methyl-5-(trifluoromethyl)-1,2,4-triazole-3(2H,4H)-thione] | – |
| – | – | 91 | > 500 | > 500 | > 500 | – | – | C=CCn1c(-c2cccnc2)nn(CCCN2CCN(c3ccccc3OC)CC2)c1=O.Cl.Cl.Cl [Example 72, 4-Allyl-2-{3-[4-(2-methoxyphenyl)piperazin-1-yl]propyl}-5-(3-pyridyl)-1,2,4-triazol-3(2H,4H)-one trihydrochloride] | – |
| 77 | 68 | 59 | 201 | – | – | – | – | C=CCn1c(-c2ccc(Cl)cc2)nn(CN2CCN(c3ccccc3OC)CC2)c1=S [Example 62, 4-Allyl-5-(4-chlorophenyl)-2-[4-(2-methoxyphenyl)piperazin-1-ylmethyl]-1,2,4-triazole-3(2H,4H)-thione] | – |

Second part, the compound before the results:

| SMILES | inhibition at 1 µM (5-HT1A receptors; [1]) [%] | inhibition at 1 µM (α2D-adrenoceptors) [%] | % displacement at 10^-6 M, α1 (α1-adrenoceptors) [%] | Ki (D2 dopamine receptors) [nM] | Ki (5-HT1A receptors; rat hippocampus) [nM] | Ki (α2D-adrenoceptors) [nM] | Ki (α1-adrenoceptors) [nM] | inhibition at 1 µM (D2 dopamine receptors; 10^-6 M, tritiated (S)-sulpiride, read-out: % displacement at 10^-6 M, D2) [%] | inhibition at 1 µM (5-HT1A receptors) [%] |
| --- | --- | --- | --- | --- | --- | --- | --- | --- | --- |
| COCCCn1c(-c2ccncc2)nn(CN2CCN(c3ccccc3OC)CC2)c1=S [Example 50, 2-[4-(2-Methoxyphenyl)piperazin-1-ylmethyl]-4-(3-methoxypropyl)-5-(4-pyridyl)-1,2,4-triazole-3(2H,4H)-thione] | – | – | – | 192 | 170 | 194 | > 500 | – | – |
| C=CCn1c(-c2ccncc2)nn(CN2CCN(c3ccccc3OC)CC2)c1=S [Example 49, 4-Allyl-2-[4-(2-methoxyphenyl)piperazin-1-ylmethyl]-5-(4-pyridyl)-1,2,4-triazole-3(2H,4H)-thione] | – | – | – | 121 | 123 | 146 | > 500 | – | – |
| C=CCN1C(=O)C(C)(CN2CCN(c3ccccc3OC)CC2)N=C1c1cccnc1 (stereo not shown) [Example 39, 1-allyl-4-[4-(2-methoxyphenyl)piperazin-1-ylmethyl]-4-methyl-2-(3-pyridyl)-2-imidazolin-5-one] | – | – | – | – | 101 | 115 | > 500 | 72 | – |
| C=CCn1c(-c2ccccc2)nn(CCCCN2CCN(c3ccccc3OC)CC2)c1=O.Cl.Cl [Example 66, 4-Allyl-2-{4-[4-(2-methoxyphenyl)piperazin-1-yl]butyl}-5-phenyl-1,2,4-triazol-3(2H,4H)-one dihydrochloride] | – | – | 99 | 169 | – | > 500 | – | – | 92 |
| C=CCn1c(-c2cccnc2)nn(CCCCN2CCN(c3ccccc3OC)CC2)c1=O [Example 46, 4-allyl-2-{4-[4-(2-methoxyphenyl)piperazin-1-yl]butyl}-5-(3-pyridyl)-1,2,4-triazol-3(2H,4H)-one] | – | – | – | 48 | 64 | > 500 | 16 | – | – |
| Nc1c(CN2CCN(c3cccc(C(F)(F)F)c3)CC2)c(C2CC2)nn1-c1ccccc1 [Example 15, 5-Amino-3-cyclopropyl-1-phenyl-4-{4-[3-(trifluoromethyl)phenyl]piperazin-1-ylmethyl}pyrazole] | 67 | – | – | 337 | – | > 500 | > 500 | – | – |
| C=CCn1c(-c2ccccc2)nn(CN2CCN(c3ccccc3OC)CC2)c1=S [Example 52, 4-Allyl-2-[4-(2-methoxyphenyl)piperazin-1-ylmethyl]-5-phenyl-1,2,4-triazole-3(2H,4H)-thione] | – | – | – | 222 | 150 | 148 | > 500 | – | – |
| C=CCn1c(-c2cccnc2)nn(CCN2CCN(c3ccccc3OC)CC2)c1=O.Cl.Cl [Example 67, 4-Allyl-2-{2-[4-(2-methoxyphenyl)piperazin-1-yl]ethyl}-5-(3-pyridyl)-1,2,4-triazol-3(2H,4H)-one dihydrochloride] | – | – | 78 | > 500 | – | > 500 | – | – | 52 |
| COc1ccccc1N1CCN(Cn2nc(-c3ccc(Cl)cc3)n(-c3cccnc3)c2=S)CC1 [Example 48, 5-(4-Chlorophenyl)-2-[4-(2-methoxyphenyl)piperazin-1-ylmethyl]-4-(3-pyridyl)-1,2,4-triazole-3(2H,4H)-thione] | – | – | – | 200 | 108 | 71 | 430 | – | – |
| C=CCn1c(-c2cccnc2)nn(CN2CCN(c3cccc4c3OCCO4)CC2)c1=S [Example 45, 4-allyl-2-[4-(1,4-benzodioxan-5-yl)piperazin-1-ylmethyl]-5-(3-pyridyl)-1,2,4-triazole-3(2H,4H)-thione] | – | – | – | 322 | 31 | 225 | > 500 | – | – |
| COc1ccccc1N1CCN(Cc2c(C3CC3)nn(-c3ccccc3)c2N)CC1 [Example 9, 5-amino-3-cyclopropyl-4-[4-(2-methoxyphenyl)piperazin-1-ylmethyl]-1-phenylpyrazole] | – | – | – | 374 | 49 | 81 | 9 | – | – |
